A short description of the series: Stability in mouse plasma. It is filed as in vitro ADME. To be noted: 1 h.

The structures appear in SMILES notation.

Experimental findings from patent US10675360B2 (MADRIGAL PHARMACEUTICALS, INC., priority 2014, dated 2020) are described below.

Method: SDC-TRAP-0022 and SDC-TRAP-0028 were incubated in human and mouse plasma for 2 h at 37° C. and assayed for integrity at 0.25, 0.5, 1 and 2 h. The values reported below are the remaining of the parent compound at the end of the 2 h incubation period.
This solution was used to precipitate all plasma samples in the study. 200 μL was pipetted into a 96 deepwell plate over dry ice. 10 μL of 1 mM stock in DMSO was added to a 1.5 mL microfuge tube, then 990 μL of plasma. Samples were mixed by vortex, then 50 μL of each sample was added in triplicate to a 96-well plate containing internal standard solution. This was designated the 0 hour time point sample. 250 μL of the remaining plasma sample was added to each of four 96 deepwell plates—one per time point. Samples were incubated at 37° C. with gentle shaking for 0.25, 0.5, and 1 hour. After each time point, one plate of each sample was removed from the shaker and placed on wet ice for approximately 2 minutes. 50 μL plasma aliquots (in triplicate) were added to the deepwell plate containing internal standard solution. After the last time point was extracted, the 96 deepwell plate was vortexed, then centrifuged at 2-8° C. 150 μL of supernatant was collected and 25 μL of water was added. Samples were mixed and analyzed by LC-MS/MS.
The stability of seven SDC-TRAP types in mouse plasma was measured as follows. 990 μL mouse plasma aliquots from a common stock were spiked with 10 μL of 1 mM stock of one of seven SDC-TRAP samples identified in the table below. Each sample was mixed and divided into 250 μL aliquots, each representing time points 0, 15 minutes, 30 minutes or 1 hour. At the prescribed time point, 3×50 μL samples were each mixed with 200 μL of methanol containing internal standard and held on dry ice until all time point samples were extracted. The samples collectively were vortex mixed for 1.5 minutes at 1500 rpm, then centrifuged at 4400 rpm for 10 minutes at 8° C.

Consider `CC(C)c1cc(-c2nnc(O)n2-c2ccc(CC(=O)N(C)CCOC(=O)Nc3cccc4c3CN(C3CCC(=O)NC3=O)C4=O)cc2)c(O)cc1O` (stereo not drawn) [SDC-TRAP-0127, 2-(2-(4-(3-(2,4-dihydroxy-5-isopropylphenyl)-5-hydroxy-4H-1,2,4-triazol-4-yl)phenyl)-N-methylacetamido)ethyl(2-(2,6-dioxopiperidin-3-yl)-1-oxoisoindolin-4-yl)carbamate], for which the “% Remaining” value (mouse, plasma, 10 μM) is on record as 87.3%. In the case of `CCc1c2c(nc3ccc(O)cc13)-c1cc3c(c(=O)n1C2)COC(=O)C3(CC)OC(=O)CN1CCN(c2ccc(-n3c(O)nnc3-c3cc(C(C)C)c(O)cc3O)cc2)CC1` (stereo not drawn) [SDC-TRAP-0056, 4,11-diethyl-9-hydroxy-3,14-dioxo-3,4,12,14-tetrahydro-1H-pyrano[3′,4′: 6,7]indolizino[1,2-b]quinolin-4-yl 2-(4-(4-(3-(2,4-dihydroxy-5-isopropylphenyl)-5-hydroxy-4H-1,2,4-triazol-4-yl)phenyl)piperazin-1-yl)acetate], the “% Remaining” value (mouse plasma, 37° C.) was found to be 78%. On the same count and under the same terms, the same measure for `CCc1c2c(nc3ccc(OC(=O)N4CCC(Cn5ccc6cc(-n7c(O)nnc7-c7cc(C(C)C)c(O)cc7O)ccc65)CC4)cc13)-c1cc3c(c(=O)n1C2)COC(=O)C3(O)CC` (stereo not drawn) [SDC-TRAP-0186]: 57.9%.

As to `CCc1c2c(nc3ccc(OC(=O)N(C)CCn4ccc5cc(-n6c(O)nnc6-c6cc(C(C)C)c(O)cc6O)ccc54)cc13)-c1cc3c(c(=O)n1C2)COC(=O)C3(O)CC` (stereo not drawn) [SDC-TRAP-0022, 4,11-diethyl-4-hydroxy-3,14-dioxo-3,4,12,14-tetrahydro-1H-pyrano[3′,4′:6,7]indolizino[1,2-b]quinolin-9-yl (2-(5-(3-(2,4-dihydroxy-5-isopropylphenyl)-5-hydroxy-4H-1,2,4-triazol-4-yl)-1H-indol-1-yl)ethyl)(methyl)carbamate], the “% Remaining” value (mouse plasma, 37° C.) came out at 21%.

Take `CCNC(=O)c1nnc(-c2cc(C(C)C)c(O)cc2O)n1-c1ccc(Oc2ccc(OC(=O)N(C)CCOC(=O)Nc3cccc4c3CN(C3CCC(=O)NC3=O)C4=O)cc2)cc1` (stereo not drawn): the “% Remaining” value (mouse, plasma, 10 μM) amounted to 51.2%. Still for that read-out and setting: under `CC(C)c1cc(-c2nnc(O)n2-c2ccc(CN3CCN(C(=O)Oc4ccc(COC(=O)Nc5cccc6c5CN(C5CCC(=O)NC5=O)C6=O)cc4)CC3)c(F)c2)c(O)cc1O` (stereo not drawn) [SDC-TRAP-0171, 4-((((2-(2,6-dioxopiperidin-3-yl)-1-oxoisoindolin-4-yl)carbamoyl)oxy)methyl)phenyl-4-(4-(3-(2,4-dihydroxy-5-isopropylphenyl)-5-hydroxy-4H-1,2,4-triazol-4-yl)-2-fluorobenzyl)piperazine-1-carboxylate] stands 17.7%.

In the case of `CCNC(=O)c1nnc(-c2cc(C(C)C)c(O)cc2O)n1-c1ccc2c(ccn2CCC2CCN(C(=O)Oc3ccc4nc5c(c(CC)c4c3)Cn3c-5cc4c(c3=O)COC(=O)[C@]4(O)CC)CC2)c1` [SDC-TRAP-0205, (S)-4,11-diethyl-4-hydroxy-3,14-dioxo-3,4,12,14-tetrahydro-1H-pyrano[3′,4′:6,7]indolizino[1,2-b]quinolin-9-yl 4-(2-(5-(3-(2,4-dihydroxy-5-isopropylphenyl)-5-(ethylcarbamoyl)-4H-1,2,4-triazol-4-yl)-1H-indol-1-yl)ethyl)piperidine-1-carboxylate], the “% Remaining” value (mouse plasma, 37° C.) was found to be 58.4%. As for `CCNC(=O)c1nnc(-c2cc(C(C)C)c(O)cc2O)n1-c1ccc(C(=O)N2CCN(C(=O)COC(=O)OC3(CC)C(=O)OCc4c3cc3n(c4=O)Cc4c-3nc3ccc(O)cc3c4CC)CC2)cc1` (stereo not drawn) [SDC-TRAP-0202, 4,11-diethyl-9-hydroxy-3,14-dioxo-3,4,12,14-tetrahydro-1H-pyrano[3′,4′:6,7]indolizino[1,2-b]quinolin-4-yl (2-(4-(4-(3-(2,4-dihydroxy-5-isopropylphenyl)-5-(ethylcarbamoyl)-4H-1,2,4-triazol-4-yl)benzoyl)piperazin-1-yl)-2-oxoethyl) carbonate], the “% Remaining” value (mouse plasma, 37° C.) is given as 21.2%. Turning to `CCNC(=O)c1nnc(-c2cc(C(C)C)c(O)cc2O)n1-c1ccc(OC2CCN(C(=O)C3CCCCN3C(=O)Oc3ccc4nc5c(c(CC)c4c3)Cn3c-5cc4c(c3=O)COC(=O)[C@]4(O)CC)CC2)cc1` (stereo partly drawn) [SDC-TRAP-0216, (S)-4,11-diethyl-4-hydroxy-3,14-dioxo-3,4,12,14-tetrahydro-1H-pyrano[3′,4′:6,7]indolizino[1,2-b]quinolin-9-yl 2-(4-(4-(3-(2,4-dihydroxy-5-isopropylphenyl)-5-(ethylcarbamoyl)-4H-1,2,4-triazol-4-yl)phenoxy)piperidine-1-carbonyl)piperidine-1-carboxylate], the “% Remaining” value (mouse plasma, 37° C.) is on record as 67.7%. Consider `CCNC(=O)c1nnc(-c2cc(C(C)C)c(O)cc2O)n1-c1ccc(Oc2ccc(C(=O)N3CCC(COC(=O)Nc4cccc5c4CN(C4CCC(=O)NC4=O)C5=O)CC3)cc2)cc1` (stereo not drawn) [SDC-TRAP-0125, (1-(4-(4-(3-(2,4-Dihydroxy-5-isopropylphenyl)-5-(ethylcarbamoyl)-4H-1,2,4-triazol-4-yl)phenoxy)benzoyl)piperidin-4-yl)methyl (2-(2,6-dioxopiperidin-3-yl)-1-oxoisoindolin-4-yl)carbamate], for which, under “mouse, plasma, 10 μM”, the “% Remaining” value turned out to be 99.4%. As for `CCNC(=O)c1nnc(-c2cc(C(C)C)c(O)cc2O)n1-c1ccc(Oc2ccc(C(=O)N3CCC(OC(=O)OC4(CC)C(=O)OCc5c4cc4n(c5=O)Cc5c-4nc4ccc(O)cc4c5CC)CC3)cc2)cc1` (stereo not drawn) [SDC-TRAP-0203, 4,11-Diethyl-9-hydroxy-3,14-dioxo-3,4,12,14-tetrahydro-1H-pyrano[3′,4′:6,7]indolizino[1,2-b]quinolin-4-yl (1-(4-(4-(3-(2,4-dihydroxy-5-isopropylphenyl)-5-(ethylcarbamoyl)-4H-1,2,4-triazol-4-yl)phenoxy)benzoyl)piperidin-4-yl) carbonate], the “% Remaining” value (mouse plasma, 37° C.) is 71.2%. The same measure, in the same setting: the same measure for `CCc1c2c(nc3ccc(O)cc13)-c1cc3c(c(=O)n1C2)COC(=O)[C@@]3(CC)OC(=O)N1CCC(CCn2ccc3cc(-n4c(O)nnc4-c4cc(C(C)C)c(O)cc4O)ccc32)CC1` [SDC-TRAP-0064, (S)-4,11-diethyl-9-hydroxy-3,14-dioxo-3,4,12,14-tetrahydro-1H-pyrano[3′,4′:6,7]indolizino[1,2-b]quinolin-4-yl 4-(2-(5-(3-(2,4-dihydroxy-5-isopropylphenyl)-5-hydroxy-4H-1,2,4-triazol-4-yl)-1H-indol-1-yl)ethyl)piperidine-1-carboxylate]: 91.5%; for `CCNC(=O)c1nnc(-c2cc(C(C)C)c(O)cc2O)n1-c1ccc(CN2CCC(C(=O)N3CCN(C(=O)Oc4ccc5nc6c(c(CC)c5c4)Cn4c-6cc5c(c4=O)COC(=O)C5(O)CC)C(C)C3)CC2)cc1` (stereo not drawn) [SDC-TRAP-0185, 4,11-diethyl-4-hydroxy-3,14-dioxo-3,4,12,14-tetrahydro-1H-pyrano[3′,4′:6,7]indolizino[1,2-b]quinolin-9-yl 4-(1-(4-(3-(2,4-dihydroxy-5-isopropylphenyl)-5-(ethylcarbamoyl)-4H-1,2,4-triazol-4-yl)benzyl)piperidine-4-carbonyl)-2-methylpiperazine-1-carboxylate]: 68.1%. In the case of `CC(C)c1cc(-c2nnc(O)n2-c2ccc(CN3CCN(C(=O)COC(=O)Nc4cccc5c4CN(C4CCC(=O)NC4=O)C5=O)CC3)cc2)c(O)cc1O` (stereo not drawn) [SDC-TRAP-0121, 2-(4-(4-(3-(2,4-dihydroxy-5-isopropylphenyl)-5-hydroxy-4H-1,2,4-triazol-4-yl)benzyl)piperazin-1-yl)-2-oxoethyl(2-(2,6-dioxopiperidin-3-yl)-1-oxoisoindolin-4-yl)carbamate], for the setting “mouse, plasma, 10 μM”, the “% Remaining” value stood at 89.1%.

Consider `CCNC(=O)c1nnc(-c2cc(C(C)C)c(O)cc2O)n1-c1ccc(C(=O)N2CCN(c3cc(C)c(OC(=O)Nc4cccc5c4CN(C4CCC(=O)NC4=O)C5=O)c(C)c3)CC2)cc1` (stereo not drawn) [SDC-TRAP-0178, 4-(4-(4-(3-(2,4-dihydroxy-5-isopropylphenyl)-5-(ethylcarbamoyl)-4H-1,2,4-triazol-4-yl)benzoyl)piperazin-1-yl)-2,6-dimethylphenyl (2-(2,6-dioxopiperidin-3-yl)-1-oxoisoindolin-4-yl)carbamate], for which the “% Remaining” value (mouse, plasma, 10 μM) was found to be 82.0%. `CCc1c2c(nc3ccc(O)cc13)-c1cc3c(c(=O)n1C2)COC(=O)C3(CC)OC(=O)CN1CCC(Cc2ccc(-n3c(O)nnc3-c3cc(C(C)C)c(O)cc3O)cc2)CC1` (stereo not drawn) [SDC-TRAP-0071, 4,11-diethyl-9-hydroxy-3,14-dioxo-3,4,12,14-tetrahydro-1H-pyrano[3′,4′:6,7]indolizino[1,2-b]quinolin-4-yl 2-(4-(4-(3-(2,4-dihydroxy-5-isopropylphenyl)-5-hydroxy-4H-1,2,4-triazol-4-yl)benzyl)piperidin-1-yl)acetate]: for the setting “mouse plasma, 37° C.”, the “% Remaining” value came to 102%. On the same count and under the same terms, under `CCNC(=O)c1nnc(-c2cc(C(C)C)c(O)cc2O)n1-c1ccc(OC2CCN(C(=O)CN(C)C(=O)Oc3ccc4nc5c(c(CC)c4c3)Cn3c-5cc4c(c3=O)COC(=O)[C@]4(O)CC)CC2)cc1` [SDC-TRAP-0206, (S)-4,11-diethyl-4-hydroxy-3,14-dioxo-3,4,12,14-tetrahydro-1H-pyrano[3′,4′:6,7]indolizino[1,2-b]quinolin-9-yl(2-(4-(4-(3-(2,4-dihydroxy-5-isopropylphenyl)-5-(ethylcarbamoyl)-4H-1,2,4-triazol-4-yl)phenoxy)piperidin-1-yl)-2-oxoethyl)(methyl)carbamate] stands 68.6%; under `CCc1c2c(nc3ccc(OC(=O)N4CCCCC4C(=O)N4CCC(CCn5ccc6cc(-n7c(O)nnc7-c7cc(C(C)C)c(O)cc7O)ccc65)CC4)cc13)-c1cc3c(c(=O)n1C2)COC(=O)[C@]3(O)CC` (stereo partly drawn) [SDC-TRAP-0215, (S)-4,11-diethyl-4-hydroxy-3,14-dioxo-3,4,12,14-tetrahydro-1H-pyrano[3′,4′:6,7]indolizino[1,2-b]quinolin-9-yl 2-(4-(2-(5-(3-(2,4-dihydroxy-5-isopropylphenyl)-5-hydroxy-4H-1,2,4-triazol-4-yl)-1H-indol-1-yl)ethyl)piperidine-1-carbonyl)piperidine-1-carboxylate], 77.2%.
